Source: US20220282271A1, “HERBICIDE RESISTANT PLANTS AND METHODS OF MAKING AND USING” (OFFICE OF INNOVATION ADVANCEMENT AND COMMERCIALIZATION, priority 2019, published 2022)

Tests used:
[1] = target: T1, recombinant wild-type E. indica PPO1 (Eleusine indica, UniProt A0A6G5XNV7); assay: In vitro PPO enzyme activity inhibition, wild-type PPO1; assay type: biochemical
T1 sequence (A0A6G5XNV7 1-529): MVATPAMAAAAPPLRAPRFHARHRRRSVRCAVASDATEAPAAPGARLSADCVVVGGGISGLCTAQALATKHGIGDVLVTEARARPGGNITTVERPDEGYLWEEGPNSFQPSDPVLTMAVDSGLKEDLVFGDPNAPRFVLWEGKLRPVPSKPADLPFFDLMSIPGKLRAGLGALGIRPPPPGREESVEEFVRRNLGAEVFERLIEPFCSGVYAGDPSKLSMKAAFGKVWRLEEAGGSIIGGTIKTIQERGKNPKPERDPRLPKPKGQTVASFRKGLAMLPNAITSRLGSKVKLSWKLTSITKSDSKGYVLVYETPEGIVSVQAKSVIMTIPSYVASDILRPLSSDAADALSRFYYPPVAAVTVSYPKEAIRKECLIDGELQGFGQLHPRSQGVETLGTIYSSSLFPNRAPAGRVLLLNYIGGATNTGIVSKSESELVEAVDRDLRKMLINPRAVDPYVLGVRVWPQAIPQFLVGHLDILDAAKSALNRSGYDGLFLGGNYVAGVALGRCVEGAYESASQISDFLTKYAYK
Source text: Effects of A212T substitution were studied using the E. indica backbone. The wild-type E. indica PPO1 and the E. indica PPO1 A212T variants were synthesized de novo and subcloned into pRSetB plasmid (Invitrogen, Carlsbad, Calif.). The complete description of expression and purification of E. indica PPO1 and E. indica PPO1 A212T variant proteins were referenced to the method described for PPO2 by Rangani et al. (2019, Frontiers in Plant Sci., 10:568). […] Oxadiazon, sulfentrazone, saflufenacil and lactofen are from the class of oxadiazole, triazolinone, pyrimidinedione, and diphenyl ether, respectively. Flumioxazin and trifludimoxazin are from the same chemical family, N-phenylphthalimide. […] The assay was replicated twice.

[2] = test system: PPO1 from R1 and R2 E. indica biotypes (A212T) expressed in hemG mutant E. coli strain SASX38; assay: hemG mutant E. coli SASX38 complementation assay, R1 and R2 PPO1; assay type: cell-based, Eleusine indica; conditions: R1 and R2 alleles; LB medium; 0, 10, 50, 100, 200 μM tested; 37° C., 20 h
Source text: Two putative PPO-inhibitor resistant (R-) and susceptible (S-) plasmids were created to test the role of the chloroplast-targeted PPO1 in the E. indica biotypes. The PPO1 from R1, R2 and S E. indica biotypes were cloned into the pBAD-TOPO expression vector using the pBAD TOPO™ TA Expression kit (Invitrogen, Carlsbad, Calif.), respectively. The PPO1 product was amplified using the same PCR primers and PCR reaction system as cDNA sequencing, so that the PPO1 translation began at the ATG start codon. Three different pBAD-TOPO PPO1 constructs were created and sequenced to confirm they were identical with the PPO1 gene from R1, R2 and S E. indica biotypes and there were no other nucleotide polymorphisms in the cloning experiment. R- and S-PPO1 plasmids were used to transform a hemG mutant Escherichia coli strain SASX38 by electroporation. The SASX38 mutant strain was grown on LB medium supplemented with 10 μg/mL hematin. Expression of the PPO1 in the transformed colonies of the SASX38 mutant strain were induced on LB medium with 2% L-arabinose. […]

Senna obtusifolia = assay: Weed control screen: sicklepod; assay type: in vivo; conditions: 1.0 lb ai/a, applied approximately 3 weeks after emergence, relative to non-treated
Protocol: (§1) Herbicides were applied at a spray volume of 280 L/ha with no adjuvant added to any herbicide mixture. Weed control was rated on a 0 to 100 percent phytoxicity scale with 0 being no plant injury/phytotoxicity and 100 being complete plant dessication. Twenty-one weeds were evaluated for response to herbicides (Table 3). The weeds selected were a mixture of weeds common in agronomic and horticultural crops. Herbicide was applied to all species approximately 3 weeks after emergence. Plant phytotoxicity rated as percent control relative to the non-treated.

Physalis angulata = assay: Weed control screen: cutleaf groundcherry; assay type: in vivo; conditions: 1.0 lb ai/a, applied approximately 3 weeks after emergence, relative to non-treated
Protocol: as §1

Cyperus iria = assay: Weed control screen: rice flatsedge; assay type: in vivo; conditions: 1.0 lb ai/a, applied approximately 3 weeks after emergence, relative to non-treated
Protocol: as §1

Ipomoea hederacea = assay: Weed control screen: entireleaf morningglory; assay type: in vivo; conditions: 1.0 lb ai/a, applied approximately 3 weeks after emergence, relative to non-treated
Protocol: as §1

Solanum carolinense = assay: Weed control screen: Carolina horsenettle; assay type: in vivo; conditions: 1.0 lb ai/a, applied approximately 3 weeks after emergence, relative to non-treated
Protocol: as §1

Eleusine indica = assay: Weed control screen: goosegrass; assay type: in vivo; conditions: 1.0 lb ai/a, applied approximately 3 weeks after emergence, relative to non-treated
Protocol: as §1

[3] = highest herbicide concentration 10^−5 M

SMILES: CC(C)Oc1cc(-n2nc(C(C)(C)C)oc2=O)c(Cl)cc1Cl [Oxadiazon, oxadiazon]
- IC50 [1]: 24.7 nM
- Wild-type E. indica PPO1 % inhibition [1, 3]: >90%
- inhibition at 10 µM [1, 3]: > 90%
- Concentration at which the transformed E. coli were able to grow [2]: up to 200 μM
- Percent control (0 to 100) (Senna obtusifolia): 90%
- Percent control (0 to 100) (Physalis angulata): 70%
- Percent control (0 to 100) (Cyperus iria): 60%
- Percent control (0 to 100) (Ipomoea hederacea): 100%
- Percent control (0 to 100) (Solanum carolinense): 60%
- Percent control (0 to 100) (Eleusine indica): 100%
